Data: PubChem BioAssay (NCI)
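Test compounds were applied to cells in 96-well plates for 48 hours at 5 doses. The concentration for full growth arrest is given as TGI.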

Columns and labels:
Assay in all cases: inhibition of tumour cell growth, NCI panel, 48 h
[1] = tested on: 786-0 renal
[2] = tested on: A549 NSCLC
[3] = tested on: CAKI-1 renal
[4] = tested on: CCRF-CEM leukemia
[5] = tested on: COLO 205 colon
[6] = tested on: HCT-15 colon
[7] = tested on: HS 578T breast
[8] = tested on: K-562 leukemia
[9] = tested on: MCF7 breast
[10] = tested on: MDA-MB-435
[11] = tested on: NCI-H226 lung
[12] = tested on: NCI-H460 lung
[13] = tested on: RXF 393 renal
[14] = tested on: SNB-75 CNS
[15] = tested on: SR leukemia
[16] = tested on: T-47D breast
[17] = tested on: TK-10 renal
[18] = tested on: UACC-257 melanoma
[19] = tested on: UO-31 renal

| SMILES | TGI [1] [µM] | TGI [2] [µM] | TGI [3] [µM] | TGI [4] [µM] | TGI [5] [µM] | TGI [6] [µM] | TGI [7] [µM] | TGI [8] [µM] | TGI [9] [µM] | TGI [10] [µM] | TGI [11] [µM] | TGI [12] [µM] | TGI [13] [µM] | TGI [14] [µM] | TGI [15] [µM] | TGI [16] [µM] | TGI [17] [µM] | TGI [18] [µM] | TGI [19] [µM] |
| --- | --- | --- | --- | --- | --- | --- | --- | --- | --- | --- | --- | --- | --- | --- | --- | --- | --- | --- | --- |
| COC(=O)C(C)(NC(=O)C(CC(=O)OC(C)(C)C)NC(=O)OC(C)(C)C)c1ccccc1 (stereo not given) | > 100 | > 100 | > 100 | > 100 | > 100 | > 100 | > 100 | > 100 | > 100 | > 100 | > 100 | > 100 | > 100 | > 100 | > 100 | > 100 | > 100 | > 100 | > 100 |
| CC(C)(C)c1cc(C(P(=O)(c2ccccc2)c2ccccc2)P(=O)(c2ccccc2)c2ccccc2)cc(C(C)(C)C)c1O | 7.23 | > 8.98 | 9.9 | 7.88 | 3.31 | 6.96 | 6.27 | 9.93 | > 8.8 | 4.39 | 9.13 | 4.44 | 7.09 | 7.39 | > 8.37 | > 10 | 9.87 | 4.18 | 6.99 |
| COCCOCc1nc(C#N)c(N)o1 | > 100 | > 100 | > 100 | > 100 | > 100 | > 100 | > 100 | > 100 | > 100 | > 100 | > 100 | > 100 | > 100 | > 100 | > 100 | > 100 | > 100 | > 100 | > 100 |
| CCc1nc(N)nc(N)c1-c1ccc2nn(-c3ccccc3)[n+]([O-])c2c1 | 18.9 | 27.8 | 18.2 | 36.8 | 22.3 | 18.8 | 52.3 | 22.9 | 20.8 | 19.5 | 48.7 | 14.8 | 25 | 53.1 | 34.1 | 31.7 | 55.6 | 24.2 | 35.2 |
| O=[N+]([O-])c1ccc(Cl)c(C=NC23CC4CC(CC(C4)C2)C3)c1 | > 10 | > 10 | > 10 | > 10 | > 10 | > 10 | > 10 | > 10 | > 10 | > 10 | > 10 | > 10 | > 10 | > 10 | > 10 | > 10 | > 10 | > 10 | > 10 |
| CCC(=O)NC(Nc1cccc(F)c1C)(C(F)(F)F)C(F)(F)F | > 100 | > 100 | > 100 | > 100 | > 100 | > 100 | > 100 | > 100 | > 100 | > 100 | > 100 | > 100 | 80.7 | > 100 | > 100 | > 100 | > 100 | > 100 | > 100 |
| C=C1C[C@@H]2O[C@H]3[C@H]4[C@@H](C[C@@H](C)[C@@H](OC(C)=O)[C@H]42)[C@@H](C)CO[C@@]3(C)[C@H](OC(C)=O)C[C@H]1O | > 100 | > 100 | > 100 | 49.5 | > 100 | > 100 | > 100 | 63.7 | > 100 | > 100 | > 100 | > 100 | > 100 | > 100 | > 100 | > 100 | > 100 | > 100 | > 100 |
| O=C(O)c1nc(-c2ccccc2)ncc1-c1nnnn1-c1ccccc1 | > 100 | > 100 | > 100 | > 100 | > 100 | > 100 | > 100 | > 100 | > 100 | > 100 | > 100 | > 100 | > 100 | > 100 | > 100 | > 100 | > 100 | > 100 | > 100 |
| C[C@]12CC[C@H](O)CC1=CC[C@@H]1[C@@H]2CC[C@]2(C)C(=O)[C@@H](N3CCOCC3)C[C@@H]12 | > 100 | > 100 | > 100 | > 100 | > 100 | > 100 | > 100 | > 100 | > 100 | > 100 | > 100 | > 100 | > 100 | 99.2 | > 100 | > 100 | > 100 | > 100 | > 100 |
| O=[N+]([O-])c1cc2oc(COc3ccccc3)nc2cc1Cl | > 100 | > 100 | 67.6 | > 100 | 36.6 | 43.3 | > 100 | > 100 | > 100 | 52.4 | 51.3 | 53.6 | 69.5 | 58 | > 100 | 81.4 | > 100 | 63.4 | 66 |
